Experiment [1] has as its target BTK wildtype protein (Homo sapiens (Human), UniProt Q06187). The experiment can be described thus: BTK wildtype HTRF displacement assay. The experiment is classed as binding. As to conditions: 1-hour incubation; read-out: BTK (wt) IC50. As for the experimental part: (§1) The ability of a compound to bind BTK wildtype or BTK C481S proteins was measured using an HTRF displacement assay. The assay measures the ability of a compound to displace a tracer ligand bound to the active site of BTK wildtype or BTK C481 S proteins.
(§2) Test compounds were prepared as 10 mM stock solutions in DMSO (Fisher cat #BP231-100). Compounds to be assayed were dispensed using an Echo 650 acoustic dispenser (Beckman Coulter) on a 384 well plate in 6 doses applying four-fold dilutions from the highest concentration of 5 μM. N-terminal GST-tagged recombinant full-length BTK wildtype protein and BTK C481 S protein 2-659 were purchased from Carna Biosciences, Inc (Kobe, Japan). BTK wildtype or BTK C481S protein was separately incubated with compound in assay buffer containing kinase tracer 239 (Thermo Fisher) and Mab anti GST-Th (PerkinElmer). After a 1-hour incubation at room temperature, the HTRF signal was measured using SPARK plate reader (Tecan) using the TR fluorescence mode. The HTRF ratio is calculated for DMSO, no protein control and compound samples using the following equation: HTRF ratio=Emmision665/Emmision620×10^4. The signal for the no protein control samples was used to subtract background noise from the DMSO and compound samples. Background subtracted HTRF ratios are used to calculate the percent inhibition, where DMSO controls are set to 0 percent inhibition. The percent inhibition is plotted as a function of compound concentration and IC50 values were calculated from a four-parameter logistic fit in Prism v9.4 (GraphPad), where the bottom and top are constrained to 0 and 100, respectively.

Experiment [2] has as its target BTK C481S protein (Homo sapiens (Human), UniProt Q06187, C481S). The experiment can be described thus: BTK C481S HTRF displacement assay. The experiment is classed as binding. As to conditions: 1-hour incubation. As for the experimental part: as §1, §2
The same assay was used to measure the activity of selected compounds of the formula TBM-L-hydrogen. Using the IC50 value observed for a given reversible test compound, the KI of the test compound can be assessed using the formula KI=IC50/(1+([Tracer]/Kd)), wherein the tracer concentration in the assay [Tracer] is 50 nM and the tracer Kd for BTK C481S is 54 nM.
For orientation: In TR-FRET formats the signal depends on donor and acceptor labels being close together.

BTK wildtype protein, sequence (Q06187 2-659): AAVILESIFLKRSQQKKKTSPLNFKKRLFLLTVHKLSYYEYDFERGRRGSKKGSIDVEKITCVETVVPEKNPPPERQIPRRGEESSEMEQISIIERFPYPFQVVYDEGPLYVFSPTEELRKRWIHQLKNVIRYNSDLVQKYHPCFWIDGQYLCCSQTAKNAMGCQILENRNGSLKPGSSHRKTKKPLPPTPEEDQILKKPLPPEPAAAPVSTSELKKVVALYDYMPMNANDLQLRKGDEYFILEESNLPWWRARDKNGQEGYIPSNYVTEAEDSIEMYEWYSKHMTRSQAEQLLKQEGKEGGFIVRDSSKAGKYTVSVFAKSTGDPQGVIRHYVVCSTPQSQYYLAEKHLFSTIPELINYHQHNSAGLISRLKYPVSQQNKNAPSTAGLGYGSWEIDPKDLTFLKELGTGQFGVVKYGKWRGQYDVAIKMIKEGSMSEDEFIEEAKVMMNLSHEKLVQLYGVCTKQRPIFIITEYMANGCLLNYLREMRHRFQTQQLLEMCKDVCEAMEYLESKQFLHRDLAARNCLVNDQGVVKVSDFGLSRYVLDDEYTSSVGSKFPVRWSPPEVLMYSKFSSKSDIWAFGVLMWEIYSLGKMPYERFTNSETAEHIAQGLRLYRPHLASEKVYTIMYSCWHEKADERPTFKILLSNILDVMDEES
BTK C481S protein, sequence (Q06187 2-659 C481S): as the sequence (Q06187 2-659) above, with C480S counted along it

With `COc1ccc(F)cc1C(=O)NCc1ccc(-c2nn([C@@H]3CCC[C@@H](N(C)C(=O)n4cncn4)C3)c(N)c2C(N)=O)cc1` (relative stereo) [Compound 194, N-((1R,3R)-3-(5-amino-4-carbamoyl-3-(4-((5-fluoro-2-methoxybenzamido)methyl)phenyl)-1H-pyrazol-1-yl)cyclohexyl)-N-methyl-1H-1,2,4-triazole-1-carboxamide], the IC50 in experiment [1] and in experiment [2] was ≤ 1 µM each time.

Regarding `COc1ccc(F)cc1C(=O)NCc1ccc(-c2nn([C@@H]3CCC[C@H](N(C)C(=O)n4cncn4)C3)c(N)c2C(N)=O)cc1` (relative stereo) [Compound 284, N-((1S,3R)-3-(5-amino-4-carbamoyl-3-(4-((5-fluoro-2-methoxy-benzamido)methyl)phenyl)-1H-pyrazol-1-yl)cyclohexyl)-N-methyl-1H-1,2,4-triazole-1-carboxamide], the IC50 in experiment [1] and in experiment [2] was ≤ 1 µM each time.

For the compound `CC1CC(n2nc(-c3ccc(Oc4ccccc4)cc3)c3c(N)ncnc32)CC(C)N1C(=O)n1cncn1` (stereo not drawn) [Compound 101, (4-(4-amino-3-(4-phenoxyphenyl)-1H-pyrazolo[3,4-d]pyrimidin-1-yl)-2,6-dimethylpiperidin-1-yl)(1H-1,2,4-triazol-1-yl)methanone], the IC50 in experiment [1] and in experiment [2] was ≤ 1 µM in each case.

As to `COc1nn(C)cc1Nc1nc(N2CCCC3(CCN3C(=O)n3cncn3)C2)nc2c1ncn2C` (stereo not drawn) [Compound 102, (6-(6-((3-methoxy-1-methyl-1H-pyrazol-4-yl)amino)-9-methyl-9H-purin-2-yl)-1,6-diazaspiro[3.5]nonan-1-yl) (1H-1,2,4-triazol-1-yl)methanone], the IC50 in experiment [1] and in experiment [2] was > 1 µM in each case.

Regarding `COc1ccc(F)cc1C(=O)NCc1ccc(-c2nn(C[C@@H]3CCN3C(=O)n3cncn3)c3ncnc(N)c23)cc1` [Compound 103, (S)-N-(4-(1-((1-(1H-1,2,4-triazole-1-carbonyl)azetidin-2-yl)methyl)-4-amino-1H-pyrazolo[3,4-d]pyrimidin-3-yl)benzyl)-5-fluoro-2-methoxybenzamide], the IC50 in experiment [1] and in experiment [2] was ≤ 1 µM in each case.

Take `COc1ccc(F)cc1C(=O)NCc1ccc(-c2nn(C[C@H]3CCCCN3C(=O)n3cncn3)c3ncnc(N)c23)cc1` [Compound 104, (R)-N-(4-(1-((1-(1H-1,2,4-triazole-1-carbonyl)piperidin-2-yl)methyl)-4-amino-1H-pyrazolo[3,4-d]pyrimidin-3-yl)benzyl)-5-fluoro-2-methoxybenzamide]: the IC50 (usually the point on the concentration scale where inhibition reaches its midpoint) in experiment [1] was > 1 µM; in experiment [2], ≤ 1 µM.

Consider `Cc1[nH]c2c(C(N)=O)cc(F)c(N3CCC4(CCN4C(=O)n4cncn4)C3)c2c1C` (stereo not drawn) [Compound 105, 4-(1-(1H-1,2,4-triazole-1-carbonyl)-1,6-diazaspiro[3.4]octan-6-yl)-5-fluoro-2,3-dimethyl-1H-indole-7-carboxamide], for which the IC50 in experiment [1] and in experiment [2] was ≤ 1 µM each time.

For the compound `CC1CN(Cc2ccc(C(F)(F)F)cc2N2CCCC2)CCN1C(=O)n1cncn1` (stereo not drawn) [Compound 106, (2-methyl-4-(2-(pyrrolidin-1-yl)-4-(trifluoromethyl)benzyl)piperazin-1-yl)(1H-1,2,4-triazol-1-yl)methanone], the concentration for half-maximal inhibition (IC50) in experiment [1] and in experiment [2] was > 1 µM throughout.

As to `COc1nn(C)cc1Nc1nc(N2CCC3(CCN3C(=O)n3cncn3)C2)nc2c1ncn2C` (stereo not drawn) [Compound 107, (6-(6-((3-methoxy-1-methyl-1H-pyrazol-4-yl)amino)-9-methyl-9H-purin-2-yl)-1,6-diazaspiro[3.4]octan-1-yl)(1H-1,2,4-triazol-1-yl)methanone], the IC50 in experiment [1] and in experiment [2] was > 1 µM throughout.

For `COc1ccc(F)cc1C(=O)NCc1ccc(-c2nn(C[C@H]3CCN3C(=O)n3cncn3)c3ncnc(N)c23)cc1` [Compound 108, (R)-N-(4-(1-((1-(1H-1,2,4-triazole-1-carbonyl)azetidin-2-yl)methyl)-4-amino-1H-pyrazolo[3,4-d]pyrimidin-3-yl)benzyl)-5-fluoro-2-methoxybenzamide], the IC50 in experiment [1] and in experiment [2] was ≤ 1 µM in each case.

Regarding `CCN(C(=O)n1cncn1)C1CCCC(n2nc(-c3ccc(Oc4ccccc4)cc3)c3c(N)ncnc32)C1` (stereo not drawn) [Compound 109, N-(3-(4-amino-3-(4-phenoxyphenyl)-1H-pyrazolo[3,4-d]pyrimidin-1-yl)cyclohexyl)-N-ethyl-1H-1,2,4-triazole-1-carboxamide], the IC50 in experiment [1] and in experiment [2] was ≤ 1 µM throughout.

For `COc1ccc(F)cc1C(=O)NCc1ccc(-c2nn(C3CCC(CN(C)C(=O)n4cncn4)C3)c3ncnc(N)c23)cc1` (stereo not drawn) [Compound 111, N-((3-(4-amino-3-(4-((5-fluoro-2-methoxybenzamido)methyl)phenyl)-1H-pyrazolo[3,4-d]pyrimidin-1-yl)cyclopentyl)methyl)-N-methyl-1H-1,2,4-triazole-1-carboxamide], the IC50 in experiment [1] and in experiment [2] was ≤ 1 µM each time.

In the case of `COc1ccc(F)cc1C(=O)NCc1ccc(-c2nn(CC3CC(C)CCN3C(=O)n3cncn3)c3ncnc(N)c23)cc1` (stereo not drawn) [Compound 112, N-(4-(4-amino-1-((4-methyl-1-(1H-1,2,4-triazole-1-carbonyl)piperidin-2-yl)methyl)-1H-pyrazolo[3,4-d]pyrimidin-3-yl)benzyl)-5-fluoro-2-methoxybenzamide], the IC50 in experiment [1] and in experiment [2] was > 1 µM each time.

For the compound `CN(CC1CCNc2c(C(N)=O)c(-c3ccc(Oc4ccccc4)cc3)nn21)C(=O)n1cncn1` (stereo not drawn) [Compound 113, 7-((N-methyl-1H-1,2,4-triazole-1-carboxamido)methyl)-2-(4-phenoxyphenyl)-4,5,6,7-tetrahydro-pyrazolo[1,5-a]pyrimidine-3-carboxamide], the IC50 in experiment [1] and in experiment [2] was > 1 µM each time.

In the case of `CN(C(=O)n1cncn1)C1CC(C2CCNc3c(C(N)=O)c(-c4ccc(Oc5ccccc5)cc4)nn32)C1` (stereo not drawn) [Compound 115, 7-(3-(N-methyl-1H-1,2,4-triazole-1-carboxamido)cyclobutyl)-2-(4-phenoxyphenyl)-4,5,6,7-tetrahydropyrazolo[1,5-a]pyrimidine-3-carboxamide], the IC50 in experiment [1] and in experiment [2] was ≤ 1 µM in each case.

As for `COc1ccc(F)cc1C(=O)NCc1ccc(-c2nn(C3(CN(C)C(=O)n4cnc(C#N)n4)CC3)c3ncnc(N)c23)cc1` [Compound 117, N-((1-(4-amino-3-(4-((5-fluoro-2-methoxybenzamido)methyl)phenyl)-1H-pyrazolo[3,4-d]pyrimidin-1-yl)cyclopropyl)methyl)-3-cyano-N-methyl-1H-1,2,4-triazole-1-carboxamide], the IC50 in experiment [1] was ≤ 1 µM; in experiment [2], > 1 µM.

With `COc1ccc(F)cc1C(=O)NCc1ccc(-c2nn(C3(CN(C)C(=O)n4cnnn4)CC3)c3ncnc(N)c23)cc1` [Compound 119, N-((1-(4-amino-3-(4-((5-fluoro-2-methoxybenzamido)methyl)phenyl)-1H-pyrazolo[3,4-d]pyrimidin-1-yl)cyclopropyl)methyl)-N-methyl-1H-tetrazole-1-carboxamide], the results for the IC50 in experiment [1] and in experiment [2] were ≤ 1 µM and > 1 µM, respectively.

As to `CCN(CC1CCNc2c(C(N)=O)c(-c3ccc(Oc4ccccc4)cc3)nn21)C(=O)n1cncn1` (stereo not drawn) [Compound 120, 7-((N-ethyl-1H-1,2,4-triazole-1-carboxamido)methyl)-2-(4-phenoxyphenyl)-4,5,6,7-tetrahydro-pyrazolo[1,5-a]pyrimidine-3-carboxamide], the IC50 in experiment [1] and in experiment [2] was > 1 µM throughout.

As to `COc1ccc(F)cc1C(=O)NCc1ccc(-c2nn(C[C@@H]3CC[C@H]3N(C)C(=O)n3cncn3)c(N)c2C(N)=O)cc1` [Compound 121, N-((1R,2S)-2-((5-amino-4-carbamoyl-3-(4-((5-fluoro-2-methoxybenzamido)methyl)phenyl)-1H-pyrazol-1-yl)methyl)cyclobutyl)-N-methyl-1H-1,2,4-triazole-1-carboxamide], the IC50 in experiment [1] and in experiment [2] was ≤ 1 µM throughout.

For the compound `COc1ccc(F)cc1C(=O)NCc1ccc(-c2nn(C3CCCN(C(=O)n4cncn4)C3)c(N)c2C(N)=O)cc1` (stereo not drawn) [Compound 124, 1-(1-(1H-1,2,4-triazole-1-carbonyl)piperidin-3-yl)-5-amino-3-(4-((5-fluoro-2-methoxybenzamido)methyl)phenyl)-1H-pyrazole-4-carboxamide], the half-inhibitory concentration (IC50) in experiment [1] and in experiment [2] was ≤ 1 µM in each case.

`COc1ccc(F)cc1C(=O)NCc1ccc(-c2nn(C[C@@H](C)N(C)C(=O)n3cncn3)c3ncnc(N)c23)cc1` [Compound 125, (R)-N-(1-(4-amino-3-(4-((5-fluoro-2-methoxybenzamido)methyl)phenyl)-1H-pyrazolo[3,4-d]pyrimidin-1-yl)propan-2-yl)-N-methyl-1H-1,2,4-triazole-1-carboxamide]: the IC50 in experiment [1] and in experiment [2] was ≤ 1 µM in each case.

The record behind these values is patent publication US20240294531A1, “COVALENT HETEROCYCLES AND USES THEREOF” (Kumquat Biosciences Inc., priority 2022, published 2024).
